Values of other authors, collected in patent publication US8540972B2, “Sunscreen product comprising hydroxyapatite as physical filter” (Kalichem Italia S.R.L., priority 2009, dated 2013).

Tested on: HeLa cells

fate of HeLa cells after UV irradiation in the presence of the substance: die
Substance: titanium dioxide [TiO2]
